Results as given in patent US20250276038A1, “HISTATIN COMBINATIONS AND METHODS FOR TREATING OR INHIBITING CELL LOSS” (VISUS THERAPEUTICS, INC., priority 2021, published 2025).
Where no end group is shown, it is not given here.

Columns and labels:
[1] = tested on: endothelial cells in human non-surgical cornea buttons; assay: Corneal button preservation under stressed storage conditions (trypan blue staining); assay type: cell-based; settings: 1 μM in standard cornea storage media
Procedure: The effect of 1 μM histatin-1 formulated in Life4° C.™ or Optisol™ Corneal Storage Medium was assessed on the preservation of endothelial cells in 9 pairs of human non-surgical cornea buttons stored under stressed conditions. The tissues were individually stored in 20 mL Bausch & Lomb™ Cornea Tissue Viewing Chambers at room temperature (24±2° C.) for 6 to 14 days, preceded by storage at 4° C. for 3 days. All doners were White/Caucasian origin. The median age was 64 years and ranged from 14 to 73. The amount of time from the time of death to the preservation of the corneas ranged from 4 hours 15 mins to 20 hours 48 mins. Endothelial cell counts at the time of tissue harvest was 2222±240 cells/mm^2. Histatin-1 was added every other day to the right eye (OD) in a volume of 200 μL in an amount sufficient to maintain a concentration of 1 μM. Left eyes (OS) were given an equal volume of PBS. Endothelial cell viability was assessed by trypan blue staining as non-viable area expressed as a percentage of 80% of the central cornea. Briefly, cornea buttons were transferred from storage chambers to viewing wells (Barron Punch Cutting Block), endothelium side up, and 0.06% trypan blue in a volume sufficient to cover the endothelial layer limbus to limbus was applied and left for 90 secs, and then rinsed twice with PBS. […]

[2] = tested on: corneal endothelial cells; assay: Corneal endothelial cell density after surgical anterior keratectomy (corneal tomography); assay type: in vivo, New Zealand White rabbits; settings: 35 μl 80 μM topical TID; for Percent endothelial cell density reduction from baseline: mean±SD
Procedure: Sixteen New Zealand White rabbits, approximately 4-6 months old and weighing 2-3 kg were divided into 2 groups of 8 animals and dosed topically three times per day (TID) for 28 days with either 35 μl phosphate buffered saline (PBS) or 35 μl 80 μM histatin-1 following unilateral surgical keratectomy procedure.
(§1) Animals were administered buprenorphine (0.01-0.05 mg/kg, SC) for pain control just prior to the procedure. A second dose of buprenorphine (0.01-0.05 mg/kg, SC) was administered in the evening, and then administered on an as needed basis. Animals were induced for surgery with a ketamine/xylazine cocktail (50 mg/kg ketamine and 10 mg/kg xylazine IM); anesthesia was maintained with isoflurane delivered in oxygen through a mask as needed. Following induction of anesthesia, 5% betadine solution, on autoclaved sterile gauze, was used to clean the periocular (eyelids) area of the surgical eye. Betadine was then used to irrigate the ocular surface and conjunctival cul-de-sac, which was then thoroughly irrigated with sterile eyewash. One drop each of 0.5% proparacaine HCl and 10% phenylephrine HCl, was then applied to the ocular surface for ocular anesthesia and mydriasis, respectively. The rabbits were positioned under an operating microscope and an eyelid speculum was affixed. An adjustable, 8 mm corneal vacuum trephine (Moria Surgical, Antony, France) was used to create a central corneal defect of approximately 10-25% stromal depth (approximately 100 μm). The trephined section of the cornea was removed, and the wound left open. Immediately following surgery, a single dose of topical antibiotic (Neomycin Polymyxin B Sulfates Gramicidin ophthalmic solution) was applied.
(§2) The corneas of anesthetized animals were imaged with a Heidelberg Retinal Tomograph fitted with a Rostock Corneal Module (HRT III RCM). This compact ophthalmic device uses confocal scanning laser microscopy to provide high-resolution en-face images of cornea cells and structures, including corneal sub-basal nerve plexus, keratocytes subpopulations and the corneal endothelial cell layer. Central cornea confocal scans from the epithelium to the endothelium were done and optical stacks of 400×400 μm and 2 μm thick sections were generated and electronically stored for analysis.
The optical slice with the endothelium layer having the best resolution and largest coverage was selected. Of the 16 animals in the study, only 14 animals had scans with usable endothelial cell layers at 1 or more time points, and a maximum of only 4 usable scans at any single time point. The HRT III cell counting software was used to adjust image contrast and brightness to enhance manual cell counting within a selected region of interest (ROI). ROIs were >0.005 mm^2. Number of cells within a ROI ranged from 118-287. Partial cells (>½) at the edges of the ROI were counted only on 2 sides at right angles. The software computed endothelial cell density as cells/mm^2 based on manual counts in the selected ROI. Data are presented as mean±standard deviation cells/mm^2. An unpaired Student's T test was used to compare the PBS and histatin-1 groups at each follow-up time point; p<0.05 was considered statistically significant.

[3] = tested on: corneal nerves; assay: Corneal nerve regeneration after surgical anterior keratectomy (Tuj1 wholemount immunohistochemistry); assay type: in vivo, New Zealand White rabbits; settings: Day 28; 35 μl topical TID, 80 μM histatin-1 (+100 μM peptide 6); mean±SD
Procedure: Twelve New Zealand White rabbits, approximately 4-6 months old and weighing 2-3 kg were divided into 3 groups of 4 animals and dosed topically three times per day (TID) for 28 days with either 35 μl phosphate buffered saline (PBS), 35 μl 80 μM histatin-1 or 35 μl of 80 μM histatin-1+100 μM peptide 6 following a unilateral surgical keratectomy procedure.
Animals were administered buprenorphine (0.01-0.05 mg/kg, SC) for pain control just prior to the procedure. A second dose of buprenorphine (0.01-0.05 mg/kg, SC) was administered in the evening, and then administered on an as needed basis. Animals were induced for surgery with a ketamine/xylazine cocktail (50 mg/kg ketamine and 10 mg/kg xylazine IM); anesthesia was maintained with isoflurane delivered in oxygen through a mask as needed. Following induction of anesthesia, 5% betadine solution, on autoclaved sterile gauze, was used to clean the periocular (eyelids) area of the surgical eye. […]
While corneas were incubating in their final wash, slides with imaging spacers were prepared. A 0.36, 0.6 mm or combination of the two adhesive imaging spacers (Grace Biolabs cat #SA-S-3L; custom cut to 22×40 mm rectangle with an oblong window cut out) was adhered to a glass slide; spacer thickness was determined by corneal thickness measured on the day of necropsy for treated eyes; control corneas utilized a 0.36 mm spacer. […]

[4] = tested on: stromal keratocytes; assay: Loss of stromal keratocytes after surgical keratectomy (in vivo confocal corneal tomography, keratocyte counts); parameters: species or system New Zealand White rabbits; settings: for Percent keratocyte reduction from baseline: 35 μl topical TID, 80 μM histatin-1 (+100 μM peptide 6 in combination), mean±SD
Procedure: Twenty-four New Zealand White rabbits, approximately 4-6 months old and weighing 2-3 kg were divided into 3 groups of 8 animals and dosed topically three times per day (TID) for 28 days with either 35 μl Phosphate Buffered Saline (PBS), 35 μl 80 μM histatin-1 (Hst-1), or 35 μl 80 μM histatin-1+100 μM peptide 6 (P6) combination following unilateral surgical keratectomy procedure.
as §1, with “basis. Animals was induced for” for “basis. Animals were induced for”, “respectively. The rabbit was positioned under” for “respectively. The rabbits were positioned under”
as §2, with “including” for “including corneal sub-basal nerve plexus,”, “sub-basal nerve plexus.” for “endothelial cell layer.”, “400 μm×400” for “400×400”
A sampling region of the stack of optical scans was selected that corresponded to approximately 150 μm above the endothelium. This was done by counting 75 images up from the endothelium and selecting 5 adjacent images to serve as replicates. Keratocytes presented as reflective distinct irregular shaped objects. […] An unpaired Student's T test was used to compare the histatin-1 and the histatin-1+peptide 6 groups; p<0.05 was considered statistically significant.

Sequence: DSHEKRHHGYRRKFHEKHHSHREFPFYGDYGSNYLYDN [histatin-1]
- Reduction of stained area in the endothelial area versus PBS [1]: 45%
- Recovery and apparent normalization of endothelial cell density starting by Day [2]: ≤ 10 days
- Percent endothelial cell density reduction from baseline ([2]; Day 7): 15.1±2.8%
- Percent endothelial cell density reduction from baseline ([2]; Day 10): 1.1±9.1%
- Percent endothelial cell density reduction from baseline ([2]; Day 14): −0.2±5.9%
- Percent endothelial cell density reduction from baseline ([2]; Day 21): 4.5±7.8%
- Percent endothelial cell density reduction from baseline ([2]; Day 28): 7.4±2.8%
- Area of nerve regeneration [3]: 26.1±7 mm^2
- Area of nerve regeneration as percent of initial 8 mm lesion area (50.3 mm^2) [3]: 51.9±14%
- Complete recovery of keratocytes by Day ([4]; 35 μl topical TID after keratectomy): ≤ 28 days
- Percent keratocyte reduction from baseline ([4]; Day 7): 40.2±3.3%
- Percent keratocyte reduction from baseline ([4]; Day 10): 37.5±2.4%
- Percent keratocyte reduction from baseline ([4]; Day 14): 32.7±15.3%
- Percent keratocyte reduction from baseline ([4]; Day 21): 26.5±6.0%
- Percent keratocyte reduction from baseline ([4]; Day 28): 2.7±13%
